Results on five substances are retold here after patent US20240285671A1, “SEQUENTIAL INNATE AND ADAPTIVE IMMUNE MODULATION FOR CANCER TREATMENT” (Gentechnologiestiftung- Dr. Georg und Ingeburg Scheel …, priority 2021, published 2024).

Experiment [1] deals with extensive stage small cell lung cancer. To be noted: EA5161 treatment arm, ITT, with chemotherapy; cited from earlier work.
Experiment [2] shares this test system. To be noted: IMpower133 treatment arm, ITT, with chemotherapy; cited from earlier work.
For experiment [3] the test system is unchanged. To be noted: CASPIAN treatment arm, ITT, with chemotherapy; cited from earlier work.
Experiment [4] has the same test system. The experiment in a line: IMPULSE phase II trial (NCT02200081), switch maintenance vs continuation maintenance, survival. Format: in vivo, human. The source says:
An international, multicentre, open-label phase II trial conducted on 102 extensive stage small cell lung cancer after platinum based first line therapy patients. Patients who had received four cycles of first line induction chemotherapy (platinum-based) were randomized to receive either combination lefitolimod maintenance therapy, or local standard of care (control). After progression, patients received second line therapy.
The phase II IMPULSE study explored the benefit in OS of an immunotherapeutic switch maintenance therapy of ES-SCLC by the TLR9 agonist lefitolimod (dSLIM-30L1). In comparison to the various local standards of care (SoC), typically carboplatin plus etoposide, or cisplatin plus etoposide. […] A combinatorial post hoc analyses was performed of all accessible immunological data and relevant clinical parameters of the IMPLUSE study. Additionally, in order to determine in what conditions adaptive or innate immune stimulation may enhance chemotherapy outcomes, published mPFS and mOS data from the respective treatment and control arms for chemotherapy immunomodulation maintenance studies utilizing PD-L1 inhibitor-antibodies were incorporated, comparing the use of checkpoint inhibitors with the TLR9 agonist used in IMPULSE.
All lung cancer trials used (IMPULSE, IMpower133, CASPIAN, Keynote-604, and EA5161) are “maintenance” trials, wherein an immune induction treatment, a set of chemotherapy cycles, is applied to initiate anti-tumour responses (as defined by RECIST guidelines), followed by maintenance therapy until tumour progress. IMpower133, CASPIAN, Keynote-604, and EA5161 are “continuation maintenance” trials, whereas IMPULSE is a “switch maintenance” trial. In the four continuation maintenance trials, the immunomodulatory product (IMP), i.e., the respective […] checkpoint inhibitors (CPI) atezolizumab, durvalumab, pembrolizumab, or nivolumab, are present during induction chemotherapy and in the maintenance phase. In the switch maintenance trial IMPULSE, the IMP lefitolimod is not used during induction chemotherapy but introduced (“switched” to) in the maintenance phase of the trial (FIG. 1). Thus, for comparison of IMPULSE PFS and OS data with the other studies, IMPULSE mPFS1 and mOS1 were factored from the start of induction chemotherapy. Therefore, for all following analyses, the respective mOS1 values of IMPULSE are used.

Experiment [5] concerns metastatic colorectal cancer. The experiment in a line: IMPALA phase III trial (NCT02077868), progression-free survival. It is filed as in vivo, human. The source says:
An international, multicentre, open-label phase III trial conducted on 549 metastatic colorectal cancer patients in 8 EU countries. […] After progression, patients started re-induction therapy, with those in the experimental arm continuing to receive lefitolimod in addition.

For experiment [6], the system named is Regulatory T cells (% of CD4+ T cells). Nature of the experiment: Regulatory T cells in blood of IMPULSE patients, flow cytometry. It is filed as in vivo, human. Background: In flow cytometry, cells or beads pass a laser one at a time.
In experiment [7] the test system is extensive stage small cell lung cancer. To be noted: Keynote-604 treatment arm, ITT, with chemotherapy; cited from earlier work.
The mark [8] stands for this setting: Baseline, end of 4th cycle of induction PE chemotherapy.
[9] abbreviates: Visit 2, days 118-125 from start of induction PE chemotherapy.
Setting [10] is: Visit 3, days 146-153 from start of induction PE chemotherapy.
[11] abbreviates: Visit 4, days 188-195 from start of induction PE chemotherapy.

Read-outs that look alike come from different tables or passages of the source. Marks after values point to notes of the source that are not given here.

On to “Nivolumab: checkpoint inhibitor antibody (Bristol-Myers Squibb; CAS No 946414-94-4), EA5161 trial”, for which, in experiment [1], the mOS treatment was 11.3 m.
Regarding “Atezolizumab: PD-L1 inhibiting antibody (Roche AG; CAS No. 1380723-44-3), IMpower133 trial”, the mOS treatment in experiment [2] is listed as 12.3 m.
Turning to “Durvalumab: PD-L1 inhibiting antibody (Astra Zeneca, CAS No. 1428935-60-7), CASPIAN trial”, in experiment [3], the mOS treatment is listed as 13.0 m.
Regarding Lefitolimod, in experiment [4] (IMPULSE treatment arm, ITT, mOS1 calculated from start of induction chemotherapy), the mOS treatment was 12.4* m. In experiment [4] (OS1, 5 cycles vs 4 cycles of PE chemotherapy followed by TLR9 agonist (FIG. 2)), the “gain in mOS” value amounted to 2.3 m. The “efficacy in terms of mOS” value in experiment [4] (applied subsequent to platinum-based chemotherapy rather than in combination, IMPULSE compared to IMPALA) is “more efficacious”. Moreover, in experiment [4] (four qw3 PE cycles followed by a 5th cycle with PE in week 1 and TLR9 agonist in weeks 2 and 3 (FIG. 2)), the “mOS improved by” value came to 2.3 months. The PFS1 in experiment [4] (full analysis set (FAS)) is 6.1 months. The mOS1 in experiment [4] (patient subgroup (FIG. 6)) was 10.7 months; in experiment [4] (patient subgroup with PFS threshold >6.2 months (FIG. 6)), 17.1 months. Besides, in experiment [4] (switch maintenance therapy, all patients), the “benefit by mPFS or mOS compared to local standards of care” value is on record as “No additional benefit”. For the same substance, the “median OS in certain subgroups of patients” value in experiment [4] (switch maintenance therapy, subgroups) was “strong median OS improvements”. Besides, the “mPFS compared to control” value in experiment [5] (patients receiving re-induction treatment followed by cycles of chemotherapy and lefitolimod) was “significantly superior”. The “mPFS compared to the control arm” value in experiment [5] (switch-maintenance therapy) is “inferior”. Further, the “Regulatory T cells, Max” value in experiment [6] (setting [8]) is given as 12.22 % of CD4+ T cells; in experiment [6] (setting [9]), 13.65 % of CD4+ T cells; in experiment [6] (setting [10]) it was 13.06 % of CD4+ T cells; in experiment [6] (setting [11]) it was 16.33 % of CD4+ T cells. The “Regulatory T cells, Mean” value is 7.3905 % of CD4+ T cells in experiment [6] (setting [8]), 8.2827 % of CD4+ T cells in experiment [6] (setting [9]), 8.7502 % of CD4+ T cells in experiment [6] (setting [10]) and 9.5175 % of CD4+ T cells in experiment [6] (setting [11]). The “Regulatory T cells, Median” value in experiment [6] (setting [8]) is 7.470 % of CD4+ T cells; in experiment [6] (setting [9]) it was 8.100 % of CD4+ T cells; in experiment [6] (setting [10]) it was 8.905 % of CD4+ T cells; in experiment [6] (setting [11]), 9.205 % of CD4+ T cells. For the same substance, the “Regulatory T cells, Min” value in experiment [6] (setting [8]) was 4.19 % of CD4+ T cells; in experiment [6] (setting [9]) it was 4.44 % of CD4+ T cells; in experiment [6] (setting [10]), 4.27 % of CD4+ T cells; in experiment [6] (setting [11]), 5.82 % of CD4+ T cells. Further, in experiment [6] (over duration of treatment, IMPULSE), the “fraction of regulatory T cells (Treg)” value is on record as “increases with duration”.
Consider “Pembrolizumab: checkpoint inhibitor antibody (Merck Inc.; CAS No. 1374853-91-4), Keynote-604 trial”, for which, in experiment [7], the mOS treatment is 10.8 m.
